Like-named read-outs stand apart in the source and are kept apart here.

Assay [1] concerns HCT116 WT cells. As to the kind of experiment: HCT116 proliferation assay, WT cells (CellTiter-Glo, 6 days). In kind it is cell-based. The note with it: read-out: Prolif_HCT116-WT IC50. An outline of the steps: (§1)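 RPMI 1640/10% FBS; overnight attachment at 37° C, 5% CO2; 8–9-pt 1:3 titration, top 1 or 10 µM; DMSO ctrl; luminescence readout.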
Assay [2] concerns HCT116 MTAP null cells. The assay is described as follows: HCT116 proliferation assay, MTAP null cells (CellTiter-Glo, 6 days). Type of assay: cell-based. The following applies: read-out: Protif_ HCT116-MTAP null IC50. An outline of the steps:
as §1
For orientation: Cellular ATP, detected with luciferase, serves as a proxy for viable cell number.

One may read the IC50 as the point on the concentration scale where inhibition reaches its midpoint. On to `N#CC1(CN(Cc2ccc(C(F)(F)F)cn2)C(=O)c2ccc3nc(N)c(Br)cc3c2)CC1` [Example 828, 2-amino-3-bromo-N-((1-cyanocyclopropyl)methyl)-N-((5-(trifluoromethyl)pyridin-2-yl)methyl)quinoline-6-carboxamide], for which the IC50 in assay [1] (Homo sapiens, HCT-116, 144 h) was above 10000 nM; in assay [2] (HCT116-MTAP null, 144 h) it was 910 nM.
The matching figures for `Cc1cc2cc(C(=O)N(Cc3ccc(N4CCCCC4)cc3)CC3(C#N)CC3)ccc2nc1N` [Example 574, 2-amino-N-((1-cyanocyclopropyl)methyl)-3-methyl-N-(4-(piperidin-1-yl)benzyl)quinoline-6-carboxamide]: above 1000 nM and 490 nM.
On to `CO[C@@H]1CCOC[C@H]1N(Cc1ccc(C(F)(F)F)cn1)C(=O)c1ccc2nc(N)c(C)cc2c1` (single isomer, unassigned) [Example 782], for which the half-maximal inhibitory concentration (IC50) in assay [1] (Homo sapiens, HCT-116, 144 h) was 460 nM; in assay [2] (HCT116-MTAP null, 144 h), 17 nM.
Consider `Cc1cc2cc(C(=O)N(Cc3cc4c(cn3)OCCC4)C(C)c3ncccn3)ccc2nc1N` (centres unmarked) [Example 741, 2-amino-N-((3,4-dihydro-2H-pyrano[2,3-c]pyridin-6-yl)methyl)-3-methyl-N-(1-(pyrimidin-2-yl)ethyl)quinoline-6-carboxamide], for which the IC50 in assay [1] (Homo sapiens, HCT-116, 144 h) worked out at 8360 nM; in assay [2] (HCT116-MTAP null, 144 h) it was 270 nM.
The matching figures for `CNc1ccc(CN(C(=O)c2ccc3nc(N)c(C)cc3c2)[C@H](C)c2ncccc2F)nn1` [Example 824, 2-Amino-N-((1R)-1-(3-fluoro-2-pyridinyl)ethyl)-3-methyl-N-((6-(methylamino)-3-pyridazinyl)methyl)-6-quinolinecarboxamide]: above 10000 nM and 607 nM.
The matching figures for `Cc1cc2cc(C(=O)N(Cc3ccc4c(c3)NC(=O)CO4)Cc3ccccc3F)ccc2nc1N` [Example 569, 2-amino-N-[(2-fluorophenyl)methyl]-3-methyl-N-[(3-oxo-4H-1,4-benzoxazin-6-yl)methyl] quinoline-6-carboxamide]: 7160 nM and 331 nM.
With `Cc1cc2cc(C(=O)N(Cc3ccc(C(F)(F)F)cn3)[C@@H]3CC(F)(F)C[C@H]3O)ccc2nc1N` (single isomer, unassigned) [Example 780], the IC50 worked out at 1800 nM in assay [1] (Homo sapiens, HCT-116, 144 h) and 144 nM in assay [2] (HCT116-MTAP null, 144 h).
The matching figures for `C[C@H](c1ncccn1)N(Cc1ccc(C2CC2)nn1)C(=O)c1ccc2nc(N)c(Br)cc2c1` [Example 762, (R)-2-amino-3-bromo-N-((6-cyclopropylpyridazin-3-yl)methyl)-N-(1-(pyrimidin-2-yl)ethyl)quinoline-6-carboxamide]: 8800 nM and 180 nM.
The matching figures for `Cc1cc2cc(C(=O)N(Cc3ccc(N4CCOCC4)cn3)[C@H](C)c3ncccn3)ccc2nc1N` [Example 764, (R)-2-amino-3-methyl-N-((5-morpholinopyridin-2-yl)methyl)-N-(1-(pyrimidin-2-yl)ethyl)quinoline-6-carboxamide]: 4220 nM and 287 nM.
The matching figures for `Cc1cc2cc(C(=O)N(Cc3ccccc3F)Cc3c[nH]c4cccnc34)ccc2nc1N` [Example 711, 2-amino-N-[(2-fluorophenyl)methy1] -3-methyl-N-(1H-pyrrolo[3,2-b]pyridin-3-ylmethyl)quinoline-6-carboxamide]: 9780 nM and 279 nM.
Take `Cc1c(Br)c(N)nc2ncc(C(=O)N(Cc3ccc(C#N)cn3)[C@H](C)c3ncccn3)cc12` [Example 744, (R)-7-amino-6-bromo-N-((5-cyanopyridin-2-yl)methyl)-5-methyl-N-(1-(pyrimidin-2-y 1)ethy 1)-1 ,8-naphthyridine-3-carboxamide]: the concentration for half-maximal inhibition (IC50) in assay [1] (Homo sapiens, HCT-116, 144 h) was determined as 4120 nM; in assay [2] (HCT116-MTAP null, 144 h), 188 nM.
The matching figures for `Cc1cc2cc(C(=O)N(Cc3ccc(C(F)(F)F)cn3)[C@@H]3CCC[C@H]3OC(F)F)ccc2nc1N` [Example 816, 2-amino-N-((1R,2R)-2-(difluoromethoxy)cyclopentyl)-3-methyl-N-((5-(trifluoromethyl)pyridin-2-yl)methyl)quinoline-6-carboxamide]: 368 nM and 18 nM.
Regarding `Cc1cc2cc(C(=O)N(Cc3ccc(N4CCOCC4)nn3)[C@H](C)c3ncccc3F)ccc2nc1N` [Example 823, 2-Amino-N-((1R)-1-(3-fluoro-2-pyridinyl)ethyl)-3-methyl-N-((6-(4-morpholinyl)-3-pyridazinyl)methyl)-6-quinolinecarboxamide], the IC50 turned out to be 695 nM in assay [1] (Homo sapiens, HCT-116, 144 h) and 41 nM in assay [2] (HCT116-MTAP null, 144 h).
In the same order, the values of `Cc1cc2cc(C(=O)N(Cc3ccccc3F)C3CC(c4ccc(OC(F)(F)F)cc4)C3)ccc2nc1N` (centres unmarked) [Example 587, 2-amino-N-(2-fluorobenzyl)-3-methyl-N-(3-(4-(trifluoromethoxy)phenyl)cyclobutyl)quinoline-6-carboxamide] are 404 nM and 807 nM.
In the same order, the values of `COC[C@@H](C)N(Cc1ccc(C(F)(F)F)cn1)C(=O)c1ccc2nc(N)c(C)cc2c1C` [Example 771, 2-amino-N-((2R)-1-methoxy-2-propanyl)-3,5-dimethyl-N-((5-(trifluoromethyl)-2-pyridinyl)methyl)-6-quinolinecarboxamide] are above 10000 nM and 270 nM.
As for `COc1ccc(CN(C[C@H](OC)C(F)(F)F)C(=O)c2ccc3nc(N)c(C)cc3c2)nn1` (single isomer, unassigned) [Example 774], the IC50 in assay [1] (Homo sapiens, HCT-116, 144 h) was determined as 5210 nM; in assay [2] (HCT116-MTAP null, 144 h), 139 nM.
The matching figures for `N#Cc1ccc(CN(C(=O)c2ccc3nc(N)c(Br)cc3c2)[C@@H](c2ncccn2)C2CC2)nc1` [Example 738, 2-amino-3-bromo-N-((5-cyano-2-pyridinyl)methyl)-N-((R)-cyclopropyl(2-pyrimidinyl)methyl)-6-quinolinecarboxamide]: 4300 nM and 173 nM.
In the same order, the values of `C[C@H](c1ncccn1)N(Cc1ccc(C#N)c(Cl)n1)C(=O)c1ccc2nc(N)c(I)cc2c1` [Example 769, (R)-2-amino-N-((6-chloro-5-cyanopyridin-2-yl)methyl)-3-iodo-N-(1-(pyrimidin-2-yl)ethyl)quinoline-6-carboxamide] are 5010 nM and 52 nM.
In the same order, the values of `CC(=O)c1ccc(CN(C(=O)c2ccc3nc(N)c(C)cc3c2)[C@H](C)c2ncccn2)nc1` [Example 754, N-((5-acetyl-2-pyridinyl)methyl)-2-amino-3-methyl-N-((1R)-1-(2-pyrimidinyl)ethyl)-6-quinolinecarboxamide] are 4110 nM and 130 nM.
Consider `C[C@H](c1ncccn1)N(Cc1cc2c(cn1)OCCC2)C(=O)c1ccc2nc(N)c(Br)cc2c1` [Example 777, (R)-2-amino-3-bromo-N-((3,4-dihydro-2H-pyrano[2,3-c]pyridin-6-yl)methyl)-N-(1-(pyrimidin-2-yl)ethyl)quinoline-6-carboxamide], for which the half-maximal inhibitory concentration (IC50) was above 10000 nM in assay [1] (Homo sapiens, HCT-116, 144 h) and 372 nM in assay [2] (HCT116-MTAP null, 144 h).
As to “2-amino-3-methyl-N-(4-(3-oxetanyl)benzyl)-N-((1R)-1-(2-pyrimidinyl)ethyl)-6-quinolinecarboxamide, 2-amino-3-methyl-N-(4-(3-oxetanyl)benzyl)-N-((1S)-1-(2-pyrimidinyl)ethyl)-6-quinolinecarboxamide [Example 802]”, the IC50 in assay [1] is 9300 nM; in assay [2], 393 nM.
On to `N#CC[C@@H](C1CC1)N(Cc1ccc(C#N)cn1)C(=O)c1ccc2nc(N)c(I)cc2c1` [Example 837, (S)-2-amino-N-(2-cyano-1-cyclopropylethyl)-N-((5-cyanopyridin-2-yl)methyl)-3-iodoquinoline-6-carboxamide], for which the IC50 in assay [1] (Homo sapiens, HCT-116, 144 h) worked out at 2170 nM; in assay [2] (HCT116-MTAP null, 144 h), 42 nM.
As to `Cc1cc2c(C)c(C(=O)N(Cc3ccc(C(F)(F)F)cn3)[C@H](C)c3ncccn3)ccc2nc1N` [Example 770, 2-amino-3,5-dimethyl-N-((1R)-1-(2-pyrimidinyl)ethyl)-N-((5-(trifluoromethyl)-2-pyridinyl)methyl)-6-quinolinecarboxamide], the 50% inhibitory concentration (IC50) in assay [1] (Homo sapiens, HCT-116, 144 h) came to 4750 nM; in assay [2] (HCT116-MTAP null, 144 h), 132 nM.
In the same order, the values of `Cc1cc2cc(C(=O)N(Cc3ccc(C#N)c(C)n3)[C@H](C)c3ncccn3)ccc2nc1N` [Example 750, 2-amino-N-((5-cyano-6-methyl-2-pyridinyl)methyl)-3-methyl-N-((1R)-1-(2-pyrimidinyl)ethyl)-6-quinolinecarboxamide] are 3140 nM and 177 nM.
The matching figures for `Cc1cc2cc(C(=O)N(Cc3ccc(C(F)(F)F)cn3)[C@H](C)c3ccc(F)cn3)ccc2nc1N` (single isomer, unassigned) [Example 484]: 2330 nM and 59 nM.
The matching figures for `COc1ccc(CN(C(=O)c2cnc3nc(N)c(Br)cc3c2)[C@H](C)c2ncccc2F)nn1` [Example 735, 7-amino-6-bromo-N-((1R)-1-(3-fluoro-2-pyridinyl)ethyl)-N-((6-methoxy-3-pyridazinyl)methyl)-1,8-naphthyridine-3-carboxamide]: above 10000 nM and 220 nM.
For the molecule `COc1ccc(CN(C(=O)c2ccc3nc(N)c(C)cc3c2)C(C)c2ncn(C)n2)nn1` (centres unmarked) [Example 756, 2-amino-N-((6-methoxypyridazin-3-yl)methyl)-3-methyl-N-(1-(1-methyl-1H-1,2,4-triazol-3-yl)ethyl)quinoline-6-carboxamide], the IC50 in assay [1] (Homo sapiens, HCT-116, 144 h) came to 5950 nM; in assay [2] (HCT116-MTAP null, 144 h), 228 nM.
The matching figures for `Cc1cc2cc(C(=O)N(Cc3cc[nH]c3)Cc3ccc(C(F)(F)F)cn3)ccc2nc1N` [Example 583, N-((1H-pyrrol-3-yl)methyl)-2-amino-3-methyl-N-((5-(trifluoromethyl)pyridin-2-yl)methyl)quinoline-6-carboxamide]: above 1000 nM and 140 nM.

The values above are taken from US20230159510A1, “NOVEL PRMT5 INHIBITORS” (AMGEN INC., priority 2020, published 2023).
